Structures can show the parent of a compound that is named as a salt. Where two headings read alike, the source gives them in different places.
Legend:
VSVΔ51 [1] = type: cell-based, Vesicular stomatitis virus
VSVΔ51 [2] = type: cell-based, Vesicular stomatitis virus; remark: listed apart in the source
STAT1 [3] = type: cell-based, human
VSVΔ51 [4] = type: cell-based, Vesicular stomatitis virus; remark: listed apart in the source
STAT1 [5] = type: cell-based, human; remark: listed apart in the source
CT26WT cells = type: cell-based, murine
VSVΔ51 [6] = type: cell-based, Vesicular stomatitis virus; remark: listed apart in the source
HSV-1 mutant N212 = type: cell-based, herpes simplex virus
Sindbis virus = type: cell-based
B16F10 tumors = conditions: mouse, in vivo
VSVΔ51 [7] = type: cell-based, Vesicular stomatitis virus; remark: listed apart in the source
IFITM1 = type: cell-based, human
NF-κB subunit p65 = type: cell-based, human
VSVΔ51 [8] = type: cell-based, Vesicular stomatitis virus; remark: listed apart in the source
786-0 cells = type: cell-based, human
VSV-viral proteins = type: cell-based, Vesicular stomatitis virus
STAT2 = type: cell-based, human
CT26WT tumors = conditions: mouse, in vivo
VSVΔ51 [9] = type: cell-based, Vesicular stomatitis virus; remark: listed apart in the source
HT29 tumors = conditions: mouse, in vivo
VSVΔ51 [10] = type: cell-based, Vesicular stomatitis virus; remark: listed apart in the source
wtVSV = type: cell-based, Vesicular stomatitis virus
E1A-deleted Ad5 = type: cell-based, adenovirus serotype 5
B16F10 cells = type: cell-based, murine
wild-type VSV (wtVSV) = type: cell-based, Vesicular stomatitis virus
VSVΔ51 [11] = type: cell-based, Vesicular stomatitis virus; remark: listed apart in the source
VSVΔ51 [12] = type: cell-based, Vesicular stomatitis virus; remark: listed apart in the source
[13] = tested on: replication incompetent lentivirus; type: cell-based

## CCOC(=O)/C=C/C(=O)OCC [DEF, diethyl fumarate]
VSVΔ51 [1]
  VSVΔ51 infection, spread, and oncolysis: robustly enhanced
VSVΔ51 [2]
  VSVΔ51 infection, spread, and oncolysis: robustly enhanced

## CCOC(=O)/C=C\C(=O)OCC [DEM, diethyl maleate]
VSVΔ51 [1]
  VSVΔ51 infection, spread, and oncolysis: robustly enhanced
STAT1 [3]
  STAT1 phosphorylation in cells conditioned with IFNβ: inhibited STAT1 phosphorylation
VSVΔ51 [2]
  VSVΔ51 infection, spread, and oncolysis: robustly enhanced

## COC(=O)/C=C/C(=O)OC [DMF, dimethyl fumarate]
VSVΔ51 [4]
  virus growth in normal tissue cores: did not increase virus growth
STAT1 [5]
  activation (phosphorylation) of STAT1: decreased activation (phosphorylation)
CT26WT cells
  cell viability, combined treatment with VSVΔ51: synergistic decrease in cell viability
VSVΔ51 [6]
  antiviral effects of Type I IFN pretreatment on VSVΔ51 infection: antagonized the antiviral effects
HSV-1 mutant N212
  viral output of oncolytic herpes virus: improved viral output
Sindbis virus
  viral output of Sindbis virus: improved viral output
B16F10 tumors
  mice with complete remission, combination therapy: approximately 20%
  survival, combination therapy compared with either monotherapy: significantly prolonged survival
  tumor progression, combination therapy DMF + VSVΔ51: considerable delay in tumor progression
VSVΔ51 [7]
  protective (suppressive) effect of VSVΔ51ΔG-infected cell supernatant on subsequent infection: completely overcome this suppressive effect
IFITM1
  expression levels of the antiviral protein IFITM1: potently repressed
NF-κB subunit p65
  phosphorylation and translocation of NF-κB subunit p65 upon TNFα stimulation: inhibits phosphorylation and translocation
  phosphorylation and translocation of NF-κB subunit p65 upon infection: inhibits phosphorylation and translocation
VSVΔ51 [8]
  increase of VSVΔ51 infection ex vivo in primary human tumor samples: > 10 fold
786-0 cells
  cell viability, combined treatment with VSVΔ51: synergistic decrease in cell viability
VSVΔ51 [1]
  Virus-encoded GFP expression: greatly enhanced
  increase of VSVΔ51 virus growth: more than 100 fold
  infection of VSVΔ51: enhanced infection
  pre-treatment time prior to infection at which the enhancing effect was observed: up to 24 hours
  time post-infection of treatment at which the enhancing effect was observed: up to 8 hours
  viral output of VSVΔ51, growth curve at low MOI: enhanced the viral output
VSV-viral proteins
  VSV-viral proteins: increased
STAT2
  activation (phosphorylation) of STAT2: decreased activation (phosphorylation)
CT26WT tumors
  challenge of cured mice with a foreign tumor: grew 4T1 tumors at a similar rate as the naive mice
  mice with complete remission, combination therapy: approximately 20%
  re-challenge of cured mice with the same cancer cells: immune to re-challenge
  survival, combination therapy compared with either monotherapy: significantly prolonged survival
  tumor progression, combination therapy DMF + VSVΔ51: considerable delay in tumor progression
  virus-associated luciferase gene expression in tumors: enhanced virus-associated luciferase gene expression
VSVΔ51 [9]
  average plaque diameter of VSVΔ51: substantially increased
HT29 tumors
  survival, combination therapy compared with either monotherapy: significantly prolonged survival
  tumor progression, combination therapy DMF + VSVΔ51: considerable delay in tumor progression
  virus-associated luciferase gene expression in tumors: enhanced virus-associated luciferase gene expression
VSVΔ51 [10]
  VSVΔ51 infection in panel of cancer cell lines: robustly enhanced infection
wtVSV
  protective (suppressive) effect of VSVΔ51ΔG-infected cell supernatant on subsequent infection: completely overcome this suppressive effect
E1A-deleted Ad5
  increase of luciferase transgene expression: up to 20 fold
B16F10 cells
  cell viability, combined treatment with VSVΔ51: synergistic decrease in cell viability
wild-type VSV (wtVSV)
  infection of 786-0 cells by wild-type VSV: no impact on infection
VSVΔ51 [11]
  VSVΔ51 infection in patient-derived cancer cell lines: increased VSVΔ51 infection
STAT1 [3]
  STAT1 phosphorylation in cells conditioned with IFNβ: inhibited STAT1 phosphorylation
VSVΔ51 [12]
  virus growth in human normal tissues: did not improve virus growth

## COC(=O)/C=C\C(=O)OC [DMM, dimethyl maleate]
VSVΔ51 [1]
  VSVΔ51 infection, spread, and oncolysis: robustly enhanced
VSVΔ51 [2]
  VSVΔ51 infection, spread, and oncolysis: robustly enhanced

## COC(=O)CCC(=O)OC [DMS, dimethyl succinate]
VSVΔ51 [1]
  viral output of VSVΔ51: no impact on viral output

## O=C(O)/C=C/C(=O)O [FA, fumaric acid]
VSVΔ51 [1]
  infection of VSVΔ51 / viral growth: no impact on viral growth

## COC(=O)/C=C/C(=O)O [MMF, monomethyl fumarate]
[13]
  increase in lentivirus yield: 2.4 fold
